Measured values published in patent US8178506B2, “Oligomeric compounds and compositions for use in modulation of small non-coding RNAs” (Regulus Therapeutics Inc., priority 2003, dated 2012).
In the oligonucleotide strings, read from the 5' end, every base follows the letter of its sugar. An asterisk marks phosphorothioate; unmarked linkages are phosphodiester. Other units and linkages are bracketed, terminal groups are in braces. A string of capitals states the bases alone. e = 2'-O-(2-methoxyethyl) (MOE); [5mC] = 5-methylcytosine; d = 2'-deoxy (DNA)

What was measured:
HuVECs = experiment: Endothelial tube formation assay in HuVECs; conditions: for tube formation: 75 nM; for % Activity Relative to UTC (tube formation): 75 nM oligomeric compound
PEPCK-c = PEPCK-c mRNA expression in HepG2 cells; assay type: cell-based, human; conditions: for PEPCKc mRNA expression: Experiment 2, insulin treated: HepG2 cells transfected with oligomeric compound, 1 nM insulin for four hours, UTC + 1 nM insulin = 100
Description: (§1) Approximately 28 hours after transfection, the cells are subjected to serum starvation for a period of 12 to 16 hours, using serum-free growth medium. Following serum starvation, cells are treated with 1 nM insulin (insulin-treated) or are left untreated (basal conditions) for approximately four hours. At the same time, untreated control cells in both plates are treated with 100 nM insulin to determine the maximal insulin response. Following insulin treatment (forty-eight hours after transfection), total RNA is harvested from all samples, and the amount of total RNA from each sample is determined using a Ribogreen assay (Invitrogen Corporation, Carlsbad, Calif.). Real-time PCR is performed on the total RNA samples using primer/probe sets for three insulin responsive genes: insulin-like growth factor binding protein-1 (IGFBP-1), cytosolic PEPCK (PEPCK-C), and follistatin. Gene expression levels obtained by real-time PCR are normalized for total RNA content in the samples.
(§2) Oligomeric compounds of the present invention were tested for their effects on insulin signaling in HepG2 cells. HepG2 cells were plated at 7500 cells/well in collagen coated 96-well plates. The following day, cells were transfected with oligomeric compounds targeting miRNAs using 100 nM oligomeric compound in LIPOFECTIN™ (Invitrogen Corporation, Carlsbad, Calif.) in two 96-well plates. The oligomeric compounds were tested in triplicate on each 96-well plate, except for positive and negative controls, which were measured up to six times per plate. At the end of transfection, the transfection medium was replaced by regular growth medium. Twenty-eight hours post-transfection, the cells were subjected to overnight (sixteen to eighteen hours) serum starvation using serum free growth medium. Forty-four hours post-transfection, the cells in the transfected wells were treated with either no insulin (“basal” Experiment 1, for identification of insulin-mimetic compounds) or with 1 nM insulin (“insulin treated” Experiment 2, for identification of insulin sensitizers) for four hours. At the same time, in both plates, cells in some of the un-transfected control wells are treated with 100 nM insulin to determine maximal insulin response. At the end of the insulin or no-insulin treatment (forty-eight hours post-transfection), total RNA is isolated from both the basal and insulin treated (1 nM) 96-well plates, and the amount of total RNA from each sample is determined using a Ribogreen assay (Molecular Probes, Eugene, Oreg.). Real-time PCR is performed on all the total RNA samples using primer/probe sets for three insulin responsive genes: PEPCK-c, IGFBP-1 and follistatin. Expression levels for each gene are normalized to total RNA, and values+standard deviation are expressed relative to the transfectant only untreated control (UTC) and negative control compounds.
(§3) Protocols for treatment of HepG2 cells and transfection of oligomeric compounds are as described in Example 18. Also as described in Example 18, forty-four hours post-transfection, the cells in the transfected wells were treated with either no insulin (“basal” Experiment 3 (below), for identification of insulin-mimetic compounds) or with 1 nM insulin (“insulin treated” Experiment 4 (below), for identification of insulin sensitizers) for four hours. At the same time, in both plates, cells in some of the un-transfected control wells are treated with 100 nM insulin to determine maximal insulin response. At the end of the insulin or no-insulin treatment (forty-eight hours post-transfection), total RNA is isolated from both the basal and insulin treated (1 nM) 96-well plates, and the amount of total RNA from each sample is determined using a Ribogreen assay (Molecular Probes, Eugene, Oreg.).

follistatin = experiment: Follistatin mRNA expression in HepG2 cells; assay type: cell-based, human; conditions: for Follistatin mRNA expression: Experiment 2, insulin treated: HepG2 cells transfected with oligomeric compound, 1 nM insulin for four hours, UTC + 1 nM insulin = 100
Description: as §1, §2, §3

T47D cells = experiment: Caspase-3 activity assay (apoptosis) in T47D cells; conditions: T47D cells, 48 hours; for Fold Increase over UTC (caspase-3 activity, apoptosis): 200 nM oligomeric compound; for Fold Increase over UTC (caspase activity): 200 nM, relative to untreated control
IGFBP-1 = IGFBP-1 mRNA expression in HepG2 cells; assay type: cell-based, human; conditions: for IGFBP1 mRNA expression: Experiment 2, insulin treated: HepG2 cells transfected with oligomeric compound, 1 nM insulin for four hours, UTC + 1 nM insulin = 100
Description: as §1, §2, §3

HeLa cells = experiment: Cell cycle assay in HeLa cells; assay type: cell-based, human; conditions: HeLa cells; for % cells in cell cycle phase: G1 / % cells in cell cycle phase: G2/M / % cells in cell cycle phase: S / % cells in cell cycle phase: aneuploid / % cells in cell cycle phase: subG1: 48 hours after treatment, relative to untreated control (UTC=100)
[1] = tested on: BJ, B16-F10, T47D, T47Dp53 and HeLa cells; experiment: Cell cycle assay (propidium iodide flow cytometry), cell line panel; assay type: cell-based; conditions: 150 nM oligomeric compound, 4.5 μg/ml LIPOFECTIN, after 72 hours, propidium iodide flow cytometry
[2] = Experiment 3, basal (no insulin), HepG2 cells, 48 hours post-transfection
[3] = Experiment 4, insulin-sensitization: HepG2 cells treated with 1 nM insulin for four hours, 48 h post-transfection, mRNA by real-time PCR
[4] = 150 nM oligomeric compound, 24 hours, relative to untreated control (UTC = 100)
[5] = 150 nM, 48 hours, relative to untreated control

## CCGGCTGCAACACAAGACACGA (anti-miR; chemistry not fully specified) [ISIS 327958]
HuVECs
  tube formation: suppressed tube formation

## 328384 (eT*e[5mC]*eA*e[5mC]*eG*dT*dG*dG*dA*dG*dA*dG*dG*dA*dG*eT*eT*eA*eA*eA; antisense) [compound 328384]
PEPCK-c; [2]
  PEPCK-c (% UTC): 142 % UTC
PEPCK-c; [3]
  PEPCK-c (% UTC): 114 % UTC
follistatin; [2]
  Follistatin (% UTC): 110 % UTC
follistatin; [3]
  Follistatin (% UTC): 121 % UTC
T47D cells; experiment of Table 11
  Fold Increase over UTC (caspase-3 activity, apoptosis): 1.0 fold
IGFBP-1; [2]
  IGFBP-1 (% UTC): 139 % UTC
IGFBP-1; [3]
  IGFBP-1 (% UTC): 102 % UTC

## 328397 (antisense eT*eT*eG*eA*eT*d[5mC]*d[5mC]*dA*dT*dA*dT*dG*d[5mC]*dA*dA*e[5mC]*eA*eA*eG*eG) [compound 328397]
HeLa cells; [4]
  % cells aneuploid: 91%
  % cells in cell cycle phase G1: 93%
  % cells in cell cycle phase G2/M: 142%
  % cells in cell cycle phase S: 86%
  % cells in cell cycle phase subG1: 134%
HeLa cells; 150 nM oligomeric compound
  % cells in cell cycle phase: G1: 97%
  % cells in cell cycle phase: G2/M: 109%
  % cells in cell cycle phase: S: 101%
  % cells in cell cycle phase: aneuploid: 96%
  % cells in cell cycle phase: subG1: 74%
PEPCK-c
  PEPCKc mRNA expression: 76
follistatin
  Follistatin mRNA expression: 75
T47D cells
  Fold Increase over UTC (caspase activity): 1.2
IGFBP-1
  IGFBP1 mRNA expression: 57

## 327882 (antisense eT*e[5mC]*eA*e[5mC]*eT*eT*eT*eT*eG*eT*eG*eA*e[5mC]*eT*eA*eT*eG*e[5mC]*eA*eA) [compound 327882]
HuVECs; Table 56
  % Activity Relative to UTC (tube formation): 107.1%

## 327884 (antisense eG*e[5mC]*eA*eA*eA*eA*eA*eT*eG*eT*eG*e[5mC]*eT*eA*eG*eT*eG*e[5mC]*e[5mC]*eA*eA*eA) [compound 327884]
HuVECs; Table 56
  % Activity Relative to UTC (tube formation): 78.6%

## AAAGTGTCAGATACGGTGTGG (anti-miR; chemistry not fully specified) [ISIS 327944]
HuVECs
  tube formation: suppressed tube formation

## 327947 (antisense eT*e[5mC]*eA*eG*eT*eT*eA*eT*e[5mC]*eA*e[5mC]*eA*eG*eT*eA*e[5mC]*eT*eG*eT*eA) [compound 327947]
HuVECs; Table 58
  % Activity Relative to UTC (tube formation): 81.5%

## 328649 (eG*eT*eA*eG*eA*dT*dA*dA*d[5mC]*dT*dA*dA*dA*d[5mC]*dA*e[5mC]*eT*eA*e[5mC]*e[5mC]; antisense) [compound 328649]
PEPCK-c
  PEPCKc mRNA expression: 86
follistatin
  Follistatin mRNA expression: 69
T47D cells; experiment of Table 10
  Fold Increase over UTC (caspase-3 activity, apoptosis): 1.0 fold
IGFBP-1
  IGFBP1 mRNA expression: 115

## 328396 (antisense e[5mC]*eT*eG*eG*eT*dT*dG*dG*dG*dT*dA*dT*dG*dA*dG*eA*e[5mC]*eA*eG*eA) [compound 328396]
HeLa cells; [4]
  % cells aneuploid: 88%
  % cells in cell cycle phase G1: 94%
  % cells in cell cycle phase G2/M: 139%
  % cells in cell cycle phase S: 87%
  % cells in cell cycle phase subG1: 97%
HeLa cells; 150 nM oligomeric compound
  % cells in cell cycle phase: G1: 89%
  % cells in cell cycle phase: G2/M: 119%
  % cells in cell cycle phase: S: 114%
  % cells in cell cycle phase: aneuploid: 129%
  % cells in cell cycle phase: subG1: 88%
PEPCK-c
  PEPCKc mRNA expression: 65
follistatin
  Follistatin mRNA expression: 135
[1]
  G1 (percentage of cells in phase of the cell cycle): 56.8%
  G2/M (percentage of cells in phase of the cell cycle): 15%
  S (percentage of cells in phase of the cell cycle): 28.2%
  SubG1 (percentage of cells in phase of the cell cycle): 4.6%
  aneuploid (percentage of cells): 19.8%
T47D cells; experiment of Table 12
  Fold Increase over UTC (caspase-3 activity, apoptosis): 0.8 fold
IGFBP-1
  IGFBP1 mRNA expression: 128

## 327948 (antisense eG*e[5mC]*eT*eG*eA*eG*eT*eG*eT*eA*eG*eG*eA*eT*eG*eT*eT*eT*eA*e[5mC]*eA) [compound 327948]
HuVECs; Table 59
  % Activity Relative to UTC (tube formation): 33.3%

## 328423 (antisense e[5mC]*e[5mC]*eA*e[5mC]*eA*dT*dA*dT*dA*d[5mC]*dA*dT*dA*dT*dA*eT*eA*e[5mC]*eG*e[5mC]) [compound 328423]
PEPCK-c
  PEPCKc mRNA expression: 77
follistatin
  Follistatin mRNA expression: 114
[1]
  G1 (percentage of cells in phase of the cell cycle): 52.9%
  G2/M (percentage of cells in phase of the cell cycle): 14.8%
  S (percentage of cells in phase of the cell cycle): 32.4%
  SubG1 (percentage of cells in phase of the cell cycle): 4.9%
  aneuploid (percentage of cells): 15.3%
T47D cells; experiment of Table 10
  Fold Increase over UTC (caspase-3 activity, apoptosis): 0.6 fold
IGFBP-1
  IGFBP1 mRNA expression: 69

## 328377 (eT*e[5mC]*eA*e[5mC]*eT*d[5mC]*d[5mC]*dT*dA*dA*dA*dG*dG*dT*dT*e[5mC]*eA*eA*eG*eT; antisense) [compound 328377]
PEPCK-c
  PEPCKc mRNA expression: 182
follistatin
  Follistatin mRNA expression: 159
T47D cells
  Fold Increase over UTC (caspase activity): 0.7
IGFBP-1
  IGFBP1 mRNA expression: 247

## 328342 (e[5mC]*eA*eA*eT*eT*dG*d[5mC]*dG*d[5mC]*dT*dA*d[5mC]*dA*dG*dA*eA*e[5mC]*eT*eG*eT) [compound 328342]
HeLa cells; [4]
  % cells aneuploid: 67%
  % cells in cell cycle phase G1: 33%
  % cells in cell cycle phase G2/M: 238%
  % cells in cell cycle phase S: 95%
  % cells in cell cycle phase subG1: 192%
HeLa cells; 150 nM oligomeric compound
  % cells in cell cycle phase: G1: 55%
  % cells in cell cycle phase: G2/M: 225%
  % cells in cell cycle phase: S: 115%
  % cells in cell cycle phase: aneuploid: 107%
  % cells in cell cycle phase: subG1: 189%
HeLa cells; [5]
  % cells in cell cycle phase G1: 96%
  % cells in cell cycle phase G2/M: 138%
  % cells in cell cycle phase S: 89%
  % cells in cell cycle phase aneuploid: 96%
  % cells in cell cycle phase subG1: 103%
PEPCK-c
  PEPCKc mRNA expression: 39
follistatin
  Follistatin mRNA expression: 88
[1]
  G1 (percentage of cells in phase of the cell cycle): 62.3%
  G2/M (percentage of cells in phase of the cell cycle): 12.8%
  S (percentage of cells in phase of the cell cycle): 24.9%
  SubG1 (percentage of cells in phase of the cell cycle): 4.8%
  aneuploid (percentage of cells): 15.2%
IGFBP-1
  IGFBP1 mRNA expression: 98
